Patent publication US20250101062A1, “ANTIMICROBIAL PEPTIDES” (Board of Regents of the University of Nebraska, priority 2023, published 2025)
Converted amounts (≈) assume the structure as drawn. Where two headings read alike, the source gives them in different places. Where no end group is shown, it is not given here.

Assays:
Type in all cases: cell-based, Staphylococcus aureus
[1] = system: S. aureus USA300 LAC; experiment: microbe, parasite or virus in culture
Method in brief: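 Broth microdilution with twofold peptide dilutions, using exponential-phase bacteria at about 10^5 CFU/mL in MHB, incubated overnight at 37 °C and read at OD600. MIC, reported as a range, is the peptide concentration with no growth. Some tests used diluted MHB/TSB/LB, adjusted pH, or added NaCl or human serum.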

[2] = system: MRSA USA300; experiment: Membrane permeabilization (propidium iodide)
Experimental: The peptide ladder was prepared as described for the antibacterial assay with 10 μL of solution in a black COSTAR® 96-well plate. PI (MP Biomedicals, Solon, OH) was prepared in the dark and dissolved in dimethylsulfoxide (Thermo Fisher Scientific, NY) to 20 mM. This PI stock solution was further diluted to 1 mM with water, and 2 μL of 1 mM PI was added to each well. Exponential-phase MRSA USA300 was diluted to OD600 0.11 with TSB, and 88 μL was added to each well. The plate was incubated at 37° C. with continuous shaking in a FLUOstar® Omega (BMG LABTECH, NC) microplate reader. The sample was read every 5 minutes for 24 cycles with excitation and emission wavelengths of 584 and 620 nm, respectively.
Bacterial membrane permeation was conducted (Yeaman, et al. (1998) J. Clin. Invest., 101(1):178-87). In brief, the peptide ladder was prepared as described for the antibacterial assay with 10 μL in a black COSTAR 96-well plate. Propidium iodide (PI) (MP Biomedicals, Solon, OH) was prepared in the dark and dissolved in DMSO (Thermo Fisher Scientific, NY) to 20 mM. This PI stock solution was further diluted to 1 mM with water and 2 μL of 1 mM PI was added to each well. Exponential phase MRSA USA300 or P. aeruginosa E411-17 was diluted to OD600 0.11 with tryptic soy broth (TSB) and 88 μL was added to each well. The plate was incubated at 37° C. with continuous shaking in a FLUOstar® Omega (BMG LABTECH, NC) microplate reader. The sample was read every 5 minutes for 24 cycles with excitation and emission wavelengths at 584 nm and 620 nm, respectively.

[3] = system: MRSA USA300; experiment: Membrane depolarization (DiBAC4(3))
Experimental: An overnight culture of MRSA USA300 was inoculated into TSB and grown to an exponential phase. Bacteria were washed with 1×PBS, resuspended in twice the volume of 1×PBS containing 25 mM glucose, and incubated at 37° C. for 15 minutes. Then, 500 nM (final concentration) of DiBAC4 (3) bis(1, 3-dibutylbarbituric acid) trimethine oxonol (ANASPEC, CA) was added, and the mixture was vortexed gently. Aliquots of 90 μL of the energized bacteria solution were loaded into the 96-well plates (Corning COSTAR, AZ) and placed in a FLUOstar® Omega microplate reader (BMG LABTECH, NC). Fluorescence was read for 20 minutes at excitation and emission wavelengths of 485 and 520 nm, respectively. Then, 10 μL of peptide solutions was added, and fluorescence readings were recorded for 40 minutes. Triton® X-100 (0.1%) was used as the positive control.
Bacterial membrane depolarization was conducted (Marks, et al. (2013) PLoS One 8(5):e63158). […] Aliquots of 90 μL of the energized bacteria solution were loaded to the 96 well plates (Corning COSTAR, AZ) and placed in a FLUOstar® Omega microplate reader (BMG LABTECH, NC). Fluorescence was read for 20 minutes at excitation and emission wavelengths of 485 nm and 520 nm, respectively. Then, 10 μL of peptide solutions was added and fluorescence readings were recorded for 40 minutes. […]

For RRWWRWWR-NH2 [W543], the “change of MIC / activity” value ([1]; MRSA in MHB, 10% human serum) was “eightfold”, the “effect on MIC” value ([1]; MRSA in MHB, addition of 150 mM NaCl) was “did not alter the MIC” and the “increase of MIC” value ([1]; MRSA in MHB, decrease of pH from 7.2 to 6.3) was “twofold”. The “Activity (MIC) S. aureus” value ([1]; USA300) was 4 to 8 µM, the “Antimicrobial activity (MIC)” value ([1]; USA300) was 64 µM and the “Antimicrobial activity (MIC)” value ([1]; USA300, pH 6.3) was 16 µM. For the same compound, the “concentration with no growth” value ([1]; without protease) was 8 µM, the membrane permeabilization ([2]; Example 1, 1×MIC) was “clear fluorescence increase” and the membrane depolarization ([3]; Example 1, highest concentration tested) was “did not show a clear effect”.
In the case of `CCCCCCCCCC(=O)N[C@@H](Cc1c[nH]c2ccccc12)C(=O)N[C@H](CC(N)=O)C(=O)N[C@@H](CC(=O)O)C(=O)N[C@@H]1C(=O)NCC(=O)N[C@@H](CCCN)C(=O)N[C@@H](CC(=O)O)C(=O)N[C@H](C)C(=O)N[C@@H](CC(=O)O)C(=O)NCC(=O)N[C@H](CO)C(=O)N[C@@H]([C@H](C)CC(=O)O)C(=O)N[C@@H](CC(=O)c2ccccc2N)C(=O)O[C@@H]1C` [Daptomycin], the MIC ([1]; Staphylococcus aureus, MRSA / USA300, MRSA in MHB, 10% serum, read-out: Antimicrobial activity (MIC)) is reported as 1 µM (≈ 1.62 µg/mL), the MIC ([1]; Staphylococcus aureus, MRSA / USA300, MRSA in MHB, 20% serum, read-out: Antimicrobial activity (MIC)) is reported as 1 µM (≈ 1.62 µg/mL) and the MIC ([1]; Staphylococcus aureus, MRSA / USA300, MRSA in MHB, NaCl (150 mM), read-out: Antimicrobial activity (MIC)) is reported as 1 µM (≈ 1.62 µg/mL). The MIC ([1]; Staphylococcus aureus, MRSA / USA300, pH 6.3, MRSA in MHB, pH 6.3, read-out: Antimicrobial activity (MIC)) was 1 µM (≈ 1.62 µg/mL), the MIC ([1]; Staphylococcus aureus, MRSA / USA300, pH 7.2, MRSA in MHB, pH 7.2, read-out: Antimicrobial activity (MIC)) was 1 µM (≈ 1.62 µg/mL) and the MIC ([1]; Staphylococcus aureus, USA300, Human serum 5%, read-out: Antimicrobial activity (MIC)) was 0.5 to 1 µM (≈ 0.81 to 1.62 µg/mL). The MIC ([1]; Staphylococcus aureus, USA300, Human serum 10%, read-out: Antimicrobial activity (MIC)) was 0.5 to 1 µM (≈ 0.81 to 1.62 µg/mL), the MIC ([1]; Staphylococcus aureus, USA300, MHB, Table 8, read-out: Antimicrobial activity (MIC) S. aureus USA300) was 0.5 to 1 µM (≈ 0.81 to 1.62 µg/mL) and the MIC ([1]; Staphylococcus aureus, USA300, NaCl (150 mM), read-out: Antimicrobial activity (MIC)) was 0.5 µM (≈ 0.81 µg/mL). It also gave an MIC ([1]; Staphylococcus aureus, USA300, pH 6.21, pH 6.21, read-out: Antimicrobial activity (MIC)) of 0.5 to 1 µM (≈ 0.81 to 1.62 µg/mL), an MIC ([1]; Staphylococcus aureus, USA300, pH 7.22, pH 7.22, read-out: Antimicrobial activity (MIC)) of 0.5 µM (≈ 0.81 µg/mL) and an MIC ([1]; Staphylococcus aureus, USA300, pH 8.13, pH 8.13, read-out: Antimicrobial activity (MIC)) of 0.5 µM (≈ 0.81 µg/mL). The membrane permeabilization ([2]; Example 1, 1×MIC) was “membrane permeabilization after a delay”.
With `CC[C@H](C)[C@H](NC(=O)[C@H](CCCCN)NC(=O)[C@H](CCC(=O)O)NC(=O)[C@H](CCCCN)NC(=O)[C@H](CO)NC(=O)[C@H](CCCCN)NC(=O)[C@H](CCCNC(=N)N)NC(=O)[C@H](Cc1ccccc1)NC(=O)[C@H](Cc1ccccc1)NC(=O)[C@H](CC(=O)O)NC(=O)CNC(=O)[C@H](CC(C)C)NC(=O)[C@@H](N)CC(C)C)C(=O)NCC(=O)N[C@@H](CCCCN)C(=O)N[C@@H](CCC(=O)O)C(=O)N[C@@H](Cc1ccccc1)C(=O)N[C@@H](CCCCN)C(=O)N[C@@H](CCCNC(=N)N)C(=O)N[C@H](C(=O)N[C@H](C(=O)N[C@@H](CCC(N)=O)C(=O)N[C@@H](CCCNC(=N)N)C(=O)N[C@H](C(=O)N[C@@H](CCCCN)C(=O)N[C@@H](CC(=O)O)C(=O)N[C@@H](Cc1ccccc1)C(=O)N[C@@H](CC(C)C)C(=O)N[C@@H](CCCNC(=N)N)C(=O)N[C@@H](CC(N)=O)C(=O)N[C@@H](CC(C)C)C(=O)N[C@H](C(=O)N1CCC[C@H]1C(=O)N[C@@H](CCCNC(=N)N)C(=O)N[C@H](C(=O)N[C@@H](CCC(=O)O)C(=O)N[C@@H](CO)C(=O)O)[C@@H](C)O)C(C)C)[C@@H](C)CC)C(C)C)[C@@H](C)CC` [LL-37] the MIC ([1]; DMEM, read-out: Antimicrobial activity (MIC)) was ≤4 µM, the MIC ([1]; Human serum 5%, read-out: Antimicrobial activity (MIC)) was >32 µM and the MIC ([1]; Human serum 10%, read-out: Antimicrobial activity (MIC)) was >32 µM. The “Antimicrobial activity (MIC)” value ([1]; LB 12.5%) was >32 µM, the “Antimicrobial activity (MIC)” value ([1]; LB 25%) was >32 µM and the “Antimicrobial activity (MIC)” value ([1]; LB 50%) was >32 µM. For the same compound, the “Antimicrobial activity (MIC)” value ([1]; LB 100%) was >32 µM, the “Antimicrobial activity (MIC)” value ([1]; MHB 50%) was 32 µM and the “Antimicrobial activity (MIC)” value ([1]; MHB 100%) was “did not display any activity”. For the same compound, the MIC ([1]; MHB, Table 8, read-out: Antimicrobial activity (MIC) S. aureus USA300) was >32 µM, the MIC ([1]; NaCl (150 mM), read-out: Antimicrobial activity (MIC)) was >32 µM and the MIC ([1]; RPMI 1640, read-out: Antimicrobial activity (MIC)) was ≤4 µM. For the same compound, the “Antimicrobial activity (MIC)” value ([1]; TSB 12.5%) was >32 µM, the “Antimicrobial activity (MIC)” value ([1]; TSB 25%) was >32 µM and the “Antimicrobial activity (MIC)” value ([1]; TSB 50%) was >32 µM. The “Antimicrobial activity (MIC)” value ([1]; TSB 100%) was >32 µM, the MIC ([1]; pH 6.21, read-out: Antimicrobial activity (MIC)) was >32 µM and the MIC ([1]; pH 7.22, read-out: Antimicrobial activity (MIC)) was >32 µM. For the same compound, the membrane permeabilization ([2]; Example 2, TSB, 1-32 μM) was “failed to do so” and the membrane depolarization ([3]; Example 2, PBS with glucose) was “most powerful in membrane depolarization”.
